Several values for one entry are separate records, joined by “and”; a condition that tells them apart may be missing. Identical values can stand only once. Like-named read-outs stand apart in the source and are kept apart here.
System: ciliary muscle
Experiment: Atropine inhibition of acetylcholine-induced ciliary muscle contraction (Magnus tube)
Type: cell-based, rabbit
Conditions: for inhibition at 1 µM: Oryctolagus cuniculus, atropine 10^-6 mol/L vs control; for Tension of Contraction (g), Tables 2 and 6 / Tension of Contraction (g), Tables 4 and 8 / Tension of Contraction (g), Tables 3 and 7: individual enucleated organs 1-2
Method: The ciliary muscle obtained in EXAMPLE 1 was suspended in a Magnus tube filled with Krebs-Henseleit solution bubbled through with a mixed gas of 5% carbon dioxide and 95% oxygen. Krebs-Henseleit solution was prepared as follows. A-solution, B-solution, C-solution, water and D-solution were mixed at a ratio of 1:1:1:6:1 in the following order. First A-solution, B-solution and C-solution were mixed in the above ratio followed by the addition of distilled water. After rigorous mixing, D-solution was added. The solution thus prepared was shielded from light and used after heating at 37 degrees C.
The sample in the Magnus tube was suspended at a loading weight of 0.4 g using a tension transducer (Isometric Transducer, FD Pick-up TB-611 T type, made by Nihon Kohden Corporation, Tokyo, Japan). After equilibration for 30 minutes, acetylcholine (made by SIGMA, St. Louis, Mo.) at a final concentration of 10-4 mol/L was added for the first stimulation. After tension reached a plateau value, the sample was washed with a buffer until the tension returned to the baseline. This procedure was repeated nine times.
The tension of the sample upon each stimulation was recorded by the data collection software (VISUAL DESIGNER ver. 2.3, made by INTELLIGENT INSTRUMENTATION, Tucson, Ariz.) via the tension transducer, an input box (JD-112S type, made by Nihon Kohden Corporation), an amplifier for pressure strain (AP-621G type, made by Nihon Kohden Corporation) and an A.D. conversion board (PCI-20428W, made by INTELLIGENT INSTRUMENTATION).
The net tension was calculated by subtracting the baseline tension from the tension observed after stimulation, and this was defined as the contraction rate. The first net tension, i.e., tension at the first stimulation—baseline tension, was set as a contraction rate of 100%.
In addition, the sample in the Magnus tube was treated with atropine at a final concentration of 10-6 mol/L and subjected to acetylcholine stimulation as described above, in order to confirm whether the tension of the sample was in fact due to stimulation by acetylcholine.

[1] = atropine 10^-6 mol/L, baseline tension data set
[2] = atropine 10^-6 mol/L, net tension data set
[3] = atropine 10^-6 mol/L, tension after acetylcholine stimulation data set

`CN1[C@@H]2CC[C@H]1C[C@@H](OC(=O)C(CO)c1ccccc1)C2` (stereo partly shown) [atropine] was tested. Which inhibition at 1 µM (baseline tension data set, read-out: Inhibition Value (%), Table 6) did it give?
The inhibition at 1 µM was 84.6%.

What about the inhibition at 1 µM (net tension data set, read-out: Inhibition Value (%), Table 8) of the same compound?
The inhibition at 1 µM was 75.6%.

And the inhibition at 1 µM (tension after acetylcholine stimulation data set, read-out: Inhibition Value (%), Table 7)?
The inhibition at 1 µM was 82%.

And the “contraction of the ciliary muscle elicited by acetylcholine” value (atropine 10^-6 mol/L)?
Its value is “inhibited”.

And the “Tension of Contraction, Average ± standard deviation, Table 6” value [1]?
The value was 0.0245 ± 0.0024 g.

And the “Tension of Contraction (g), Tables 2 and 6” value [1]?
The value was 0.0228 g and 0.0262 g.

What about the “Tension of Contraction (g), Tables 2 and 6” value (atropine 10^-6 mol/L, baseline tension data set, listed as Artopine) of the same compound?
Its value is 0.0228 g and 0.0262 g.

What about the “Tension of Contraction, Average ± standard deviation, Table 8” value [2] of the same compound?
Its value is 0.0156 ± 0.0076 g.

And the “Tension of Contraction (g), Tables 4 and 8” value [2]?
The value was 0.0102 g and 0.0210 g.

And the “Tension of Contraction (g), Tables 4 and 8” value (atropine 10^-6 mol/L, net tension data set, listed as Artopine)?
The value was 0.0102 g and 0.0210 g.

What about the “Tension of Contraction, Average ± standard deviation, Table 7” value [3] of the same compound?
The value was 0.0401 ± 0.0100 g.

What about the “Tension of Contraction (g), Tables 3 and 7” value [3] of the same compound?
Its value is 0.0330 g and 0.0472 g.

What about the “Tension of Contraction (g), Tables 3 and 7” value (atropine 10^-6 mol/L, tension after acetylcholine stimulation data set, listed as Artopine) of the same compound?
Its value is 0.0330 g and 0.0472 g.
